#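 Results reflect a 48-hour exposure of cells in 96-well plates to compound at five concentrations. At the GI50, growth is halved.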 Active and inactive are the calls of the source. Cut-off read from the data, not from the text of the source: active = GI50 up to about 1.1 µM and inactive = higher.
# What was measured:
# Test in all cases: growth of human tumour cells (NCI), 48 h
# NCI-H23 = system: NCI-H23
# OVCAR-3 = system: OVCAR-3
# SW-620 = system: SW-620
# A549 = system: A549
# XF498 = system: XF498
# LOX IMVI = system: LOX IMVI
# RPMI-8226 = system: RPMI-8226
# CCRF-CEM = system: CCRF-CEM
# M19-MEL = system: M19-MEL
# KM-20L2 = system: KM-20L2
# SF-539 = system: SF-539
# OVCAR-8 = system: OVCAR-8
# SNB-19 = system: SNB-19
# SNB-78 = system: SNB-78
# A498 = system: A498
# DMS-273 = system: DMS-273
# SF-295 = system: SF-295
# HCT-15 = system: HCT-15
# SN12C = system: SN12C
# NCI-H460 = system: NCI-H460
# CAKI-1 = system: CAKI-1
# HOP-92 = system: HOP-92
# TK-10 = system: TK-10
# OVCAR-4 = system: OVCAR-4
# ACHN = system: ACHN
# U-251 = system: U-251
# SK-MEL-2 = system: SK-MEL-2
# SF-268 = system: SF-268
# K562 = system: K562
# KM12 = system: KM12
# DMS-114 = system: DMS-114
# UACC-257 = system: UACC-257
# SR = system: SR
# UO-31 = system: UO-31
# COLO 205 = system: COLO 205
# 786-0 = system: 786-0
# HL-60 = system: HL-60
# M14 = system: M14
# EKVX = system: EKVX
# HCC 2998 = system: HCC 2998
# HOP-62 = system: HOP-62
# MOLT-4 = system: MOLT-4
# LXFL 529 = system: LXFL 529
# SK-MEL-28 = system: SK-MEL-28
# HCT-116 = system: HCT-116
# RXF 393 = system: RXF 393
# NCI-H522 = system: NCI-H522
# SNB-75 = system: SNB-75
# UACC-62 = system: UACC-62
# NCI-H226 = system: NCI-H226
# IGROV-1 = system: IGROV-1
# DLD-1 = system: DLD-1
# SK-MEL-5 = system: SK-MEL-5
# HT-29 = system: HT-29
# Malme-3M = system: Malme-3M
# OVCAR-5 = system: OVCAR-5
smiles,measurement,setting,value
Cc1cc(NCCCCCCCCNc2cc(C)nc3cc(N(C)C)ccc23)c2ccc(N(C)C)cc2n1,GI50,NCI-H23,1.43 µM (inactive)
same,GI50,OVCAR-3,3.86 µM (inactive)
same,GI50,SW-620,6.81 µM (inactive)
same,GI50,A549,3.31 µM (inactive)
same,GI50,XF498,1.98 µM (inactive)
same,GI50,LOX IMVI,2.37 µM (inactive)
same,GI50,RPMI-8226,0.736 µM (active)
same,GI50,CCRF-CEM,5.01 µM (inactive)
same,GI50,M19-MEL,2.78 µM (inactive)
same,GI50,KM-20L2,4.29 µM (inactive)
same,GI50,SF-539,3.23 µM (inactive)
same,GI50,OVCAR-8,6.11 µM (inactive)
same,GI50,SNB-19,3.09 µM (inactive)
same,GI50,SNB-78,5.47 µM (inactive)
same,GI50,A498,17.5 µM (inactive)
same,GI50,DMS-273,2.74 µM (inactive)
same,GI50,SF-295,8.65 µM (inactive)
same,GI50,HCT-15,34.8 µM
same,GI50,SN12C,1.64 µM (inactive)
same,GI50,NCI-H460,3.01 µM (inactive)
same,GI50,CAKI-1,24.3 µM (inactive)
same,GI50,HOP-92,2.58 µM (inactive)
same,GI50,TK-10,> 10 µM (inactive)
same,GI50,OVCAR-4,4.88 µM (inactive)
same,GI50,ACHN,12.3 µM (inactive)
same,GI50,U-251,1.56 µM (inactive)
same,GI50,SK-MEL-2,5.13 µM (inactive)
same,GI50,SF-268,3.48 µM (inactive)
same,GI50,K562,0.881 µM (active)
same,GI50,KM12,2.82 µM (inactive)
same,GI50,DMS-114,1.39 µM (inactive)
same,GI50,UACC-257,3.94 µM (inactive)
same,GI50,SR,2.82 µM (inactive)
same,GI50,UO-31,75.5 µM (inactive)
same,GI50,COLO 205,1.9 µM (inactive)
same,GI50,786-0,7.16 µM (inactive)
same,GI50,HL-60,0.711 µM (active)
same,GI50,M14,3.73 µM (inactive)
same,GI50,EKVX,7.1 µM (inactive)
same,GI50,HCC 2998,4.3 µM (inactive)
same,GI50,HOP-62,12.2 µM (inactive)
same,GI50,MOLT-4,2 µM (inactive)
same,GI50,LXFL 529,1.69 µM (inactive)
same,GI50,SK-MEL-28,0.933 µM (active)
same,GI50,HCT-116,3.4 µM (inactive)
same,GI50,RXF 393,12.9 µM (inactive)
same,GI50,NCI-H522,2.75 µM (inactive)
Cc1c(Cl)c2ccccc2n1S(=O)(=O)c1ccccc1,GI50,NCI-H23,41.1 µM (inactive)
same,GI50,OVCAR-3,45 µM (inactive)
same,GI50,SW-620,38.5 µM (inactive)
same,GI50,A549,41.3 µM (inactive)
same,GI50,XF498,> 100 µM (inactive)
same,GI50,RPMI-8226,27.8 µM (inactive)
same,GI50,CCRF-CEM,48.5 µM (inactive)
same,GI50,SNB-75,19.9 µM (inactive)
same,GI50,KM-20L2,26.5 µM (inactive)
same,GI50,UACC-62,87.3 µM (inactive)
same,GI50,SF-539,54.1 µM (inactive)
same,GI50,OVCAR-8,52.6 µM (inactive)
same,GI50,SNB-19,78.7 µM (inactive)
same,GI50,NCI-H226,37 µM (inactive)
same,GI50,DMS-273,38.7 µM (inactive)
same,GI50,IGROV-1,> 100 µM (inactive)
same,GI50,SF-295,46.5 µM (inactive)
same,GI50,DLD-1,71.6 µM (inactive)
same,GI50,HCT-15,37.3 µM
same,GI50,NCI-H460,44.6 µM (inactive)
same,GI50,CAKI-1,58.7 µM (inactive)
same,GI50,HOP-92,15.7 µM (inactive)
same,GI50,SK-MEL-5,32.4 µM (inactive)
same,GI50,HT-29,46 µM (inactive)
same,GI50,TK-10,65.9 µM (inactive)
same,GI50,OVCAR-4,36.7 µM (inactive)
same,GI50,ACHN,38.1 µM (inactive)
same,GI50,U-251,88.9 µM (inactive)
same,GI50,SK-MEL-2,28.8 µM (inactive)
same,GI50,SF-268,64 µM (inactive)
same,GI50,K562,38.5 µM (inactive)
same,GI50,KM12,37.9 µM (inactive)
same,GI50,DMS-114,37.9 µM (inactive)
same,GI50,UACC-257,53.1 µM (inactive)
same,GI50,SR,32.1 µM (inactive)
same,GI50,UO-31,26.1 µM (inactive)
same,GI50,COLO 205,> 100 µM (inactive)
same,GI50,Malme-3M,> 100 µM (inactive)
same,GI50,786-0,59.6 µM (inactive)
same,GI50,HL-60,25.8 µM (inactive)
same,GI50,M14,37.8 µM (inactive)
same,GI50,HCC 2998,33.6 µM (inactive)
same,GI50,HOP-62,65.5 µM (inactive)
same,GI50,MOLT-4,37.4 µM (inactive)
same,GI50,LXFL 529,42.1 µM (inactive)
same,GI50,SK-MEL-28,> 100 µM (inactive)
same,GI50,HCT-116,39.2 µM (inactive)
same,GI50,NCI-H522,19.6 µM (inactive)
same,GI50,OVCAR-5,33.5 µM (inactive)
